Results as given in US20160318957A1, “CRYSTAL (1) OF PYRAZINO[2,1-c][1,2,4]TRIAZINE COMPOUND” (PRISM PHARMA CO., LTD., priority 2013, published 2016).

Columns and labels:
Format in all cases: physicochemical
[1] = Evaluation of solid stability (impurity content by HPLC after preservation); details: for impurity content (%): HPLC 226 nm
Experimental: The solid obtained in Example 1 or Comparative Example 1 was preserved for 3 months under the following 3 kinds of preservation conditions. The absorbance at wavelength 226 nm was measured by high performance liquid chromatography (HPLC), and the content of impurity contained in the crystal was measured every other month.
From the peak area of the obtained chromatogram, a value obtained by dividing the total area of respective peaks other than the peak showing compound 1, by the total area of all the obtained peaks, from the peaks contained in the above-mentioned solid, was taken as impurity content (%), and is shown in Table 5.

[2] = Hygroscopicity evaluation by dynamic water adsorption measuring apparatus; details: 25° C., relative humidity range of 35-75% RH
Experimental: The hygroscopicity of crystal A obtained in Example 1 was evaluated by a dynamic water adsorption measuring apparatus. A sample mounting part of the apparatus was maintained at 25° C., and the relative humidity (RH) was set stepwisely within the range of 5-95% RH. The humidity was controlled by changing the relative flow of 0% RH dry nitrogen and 100% RH humidified nitrogen. The sample weight was confirmed at for 2 min intervals by a micro balance, and the humidity was sequentially changed at the time point when the weight shift range for 5 min was below 0.01%.

[3] = Evaluation of thermal stability by X-ray-DSC
Experimental: Using X-ray diffraction-differential scanning simultaneous calorimetry apparatus (X-ray-DSC), whether the crystal form of crystal A obtained in Example 1 changes upon heating was observed.
When the temperature was around 90° C., the weight of crystal A decreased, and the powder X-ray diffraction pattern changed clearly.

[4] = Heating of crystal in an oven; details: oven at 50° C. overnight
Excerpt: First, an amorphous form of compound 1 is explained. Compound 1 can be produced by synthesize according to the method described in patent document 1.

[5] = preserved at 40° C./75% RH, 1 month later
[6] = preserved at 40° C./75% RH, 2 months later
[7] = preserved at 40° C./75% RH, 3 months later
[8] = preserved at 60° C., 1 month later
[9] = preserved at 60° C., 2 months later
[10] = preserved at 60° C., 3 months later
[11] = preserved at −20° C., 1 month later
[12] = preserved at −20° C., 2 months later
[13] = preserved at −20° C., 3 months later
[14] = heated from 40° C. to 100° C. at 1° C./min

Row | SMILES | increase in the impurity content as compared to preservation at −20° C. ([1]; 40° C., 75% RH, 3 months later) | increase in the impurity content as compared to preservation at −20° C. ([1]; 60° C., 3 months later) | impurity content (%) [1, 5] [%] | impurity content (%) [1, 6] [%] | impurity content (%) [1, 7] [%] | impurity content (%) [1, 8] [%] | impurity content (%) [1, 9] [%] | impurity content (%) [1, 10] [%] | impurity content (%) [1, 11] [%] | impurity content (%) [1, 12] [%] | impurity content (%) [1, 13] [%] | hygroscopicity [2] | weight change at the maximum [2] | powder X-ray diffraction pattern at the endothermic peak (desorption of hydrated water) ([3]; 43° C.-48° C., heated at 1° C./min) | temperature at which weight decreased and powder X-ray diffraction pattern changed clearly [3, 14] | thermal stability [3, 14] | solid stability compared with amorphous form ([1]; high temperature conditions and high humidity conditions, 3 months) | change of solid form on heating [4]
1 | C[C@H]1C2N(C(=O)CN(C)N2C(=O)NCc2ccccc2)[C@@H](Cc2ccc(OP(=O)(O)O)cc2)C(=O)N1Cc1cccc2cccnc12 (stereo partly drawn) [Comparative Example 1, 4-(((6S,9S)-1-(benzylcarbamoyl)-2,9-dimethyl-4,7-dioxo-8-(quinolin-8-ylmethyl)octahydro-1H-pyrazino[2,1-c][1,2,4]triazin-6-yl)methyl)phenyl dihydrogen phosphate] | about 4% | not less than 1.1% | 3.35 | 4.62 | 6.51 | 3.10 | 3.41 | 3.68 | 2.46 | 2.60 | 2.57 |  |  |  |  |  |  | 
2 | C[C@H]1C2N(C(=O)CN(C)N2C(=O)NCc2ccccc2)[C@@H](Cc2ccc(OP(=O)(O)O)cc2)C(=O)N1Cc1cccc2cccnc12 (stereo partly drawn) [Example 1, 4-(((6S,9S)-1-(benzylcarbamoyl)-2,9-dimethyl-4,7-dioxo-8-(quinolin-8-ylmethyl)octahydro-1H-pyrazino[2,1-c][1,2,4]triazin-6-yl)methyl)phenyl dihydrogen phosphate] | about 1.6% | not more than 0.5% | 0.65 | 1.02 | 1.80 | 0.53 | 0.59 | 0.72 | 0.24 | 0.17 | 0.24 | low hygroscopicity | about 2.5% | did not change | around 90 °C | thermally stable | more stable than the amorphous form of Comparative Example 1 | 
3 | C[C@H]1C2N(C(=O)CN(C)N2C(=O)NCc2ccccc2)[C@@H](Cc2ccc(OP(=O)(O)O)cc2)C(=O)N1Cc1cccc2cccnc12 (stereo partly drawn) [Example 2, 4-(((6S,9S)-1-(benzylcarbamoyl)-2,9-dimethyl-4,7-dioxo-8-(quinolin-8-ylmethyl)octahydro-1H-pyrazino[2,1-c][1,2,4]triazin-6-yl)methyl)phenyl dihydrogen phosphate] |  |  |  |  |  |  |  |  |  |  |  |  |  |  |  |  |  | changes into an amorphous form
